# Measurements as given in patent US5326902A, “Oxyalkyne compounds, pharmaceutical compositions containing them and processes for preparing such compounds and compositions” (Gruenenthal GmbH, priority 1992, dated 1994).
# Columns and labels:
# [1] = target: T1, 5-lipoxygenase (Rattus norvegicus, UniProt P12527); test: Inhibition of 5-lipoxygenase in RBL-1-cells; assay type: cell-based; conditions: 20 μM [14C]-arachidonic acid, 20 μM calcium ionophore A 23 187, 10 minutes
# T1 construct: endogenous in cells; host or cells: RBL-1 cells (rat basophilic leukemia)
# T1 sequence (P12527 1-673): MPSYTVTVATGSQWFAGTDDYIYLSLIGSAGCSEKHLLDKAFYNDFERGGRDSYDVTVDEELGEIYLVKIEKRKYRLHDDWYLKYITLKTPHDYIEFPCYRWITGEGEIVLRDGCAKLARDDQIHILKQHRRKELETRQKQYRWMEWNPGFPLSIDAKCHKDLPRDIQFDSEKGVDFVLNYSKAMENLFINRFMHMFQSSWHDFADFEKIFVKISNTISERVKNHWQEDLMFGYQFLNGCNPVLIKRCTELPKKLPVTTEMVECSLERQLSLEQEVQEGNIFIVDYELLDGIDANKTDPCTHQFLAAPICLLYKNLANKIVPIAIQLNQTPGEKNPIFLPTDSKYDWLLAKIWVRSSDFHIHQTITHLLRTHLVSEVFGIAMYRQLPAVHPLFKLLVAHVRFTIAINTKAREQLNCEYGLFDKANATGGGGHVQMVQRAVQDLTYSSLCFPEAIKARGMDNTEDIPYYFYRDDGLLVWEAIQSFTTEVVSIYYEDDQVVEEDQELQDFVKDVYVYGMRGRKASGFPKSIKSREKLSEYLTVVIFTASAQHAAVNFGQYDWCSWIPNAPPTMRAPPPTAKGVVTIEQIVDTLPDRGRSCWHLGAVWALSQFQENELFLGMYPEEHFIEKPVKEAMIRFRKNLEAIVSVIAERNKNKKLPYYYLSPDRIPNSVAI
# Description: To determine the inhibition of 5-lipoxygenase, rat basophilic leukemia cells (RBL-1-cells) were cultured in vitro, harvested by centrifugation, washed with 50 mM potassium phosphate buffer of pH 7.4, and then suspended in this buffer at 1×10^7 cells/ml. Indomethacin (10 μM) and calcium chloride (2 mM) were added to 1 ml portions of this suspension, and then the mixture was incubated either in the presence of a compound according to the invention in a concentration range of from 0,1 μM to 100 μM or in the presence of a solvent (ethanol and/or dimethyl sulfoxide) for 3 minutes and thereafter with 20 μM of [^14 C]-arachidonic acid and 20 μM of calcium ionophore A 23 187 for 10 minutes. The reaction was stopped by adding 20 μl of glacial acetic acid, and then the mixture was extracted with ethyl acetate to isolate the metabolites of arachidonic acid formed by the enzymatic action of 5-lipoxygenase. These were separated by thin layer chromatography using a solvent mixture known to be suitable for lipoxygenase products [c.f. Jakschik et al., Biochem. Biophys. Res. Commun. 102, 624 (1981)].
# The distribution of radioactivity among the different metabolites of arachidonic acid was measured using a TLC Linear Analyzer. By correlating the percentage amounts of the products formed under the action of 5-lipoxygenase (5HETE, isomers of LTB4) in the absence as well as in the presence of different concentrations of compounds according to the invention, the IC50 -values, i.e. the concentrations which cause a 50% inhibition of 5-lipoxygenase, were determined graphically from semilogarithmic plots.
# [2] = target: T1, 5-lipoxygenase; test: Inhibition of Cell-free 5-lipoxygenase from RBL-1-cells (polarographic, 10,000 × g supernatant); assay type: biochemical; conditions: 10,000 × g supernatant of homogenized RBL-1-cells; arachidonic acid 75 μM; 35° C.; calculated IC50
# Description: Cell-free 5-lipoxygenase was polarographically measured from 10,000 × g supernatant of homogenized rat basophilic leucemia cells (M. Haurand & L. Flohe in Biol. Chem. Hoppe-Seyler 369, 133 to 142 (1988)). After preincubation of the 10,000 × g supernatant with arachidonic acid (75 μM), ATP (adenosine triphosphate; 4 mM), reduced glutathione (4 mM), and either a compound according to the invention (0.1 to 100 μM) or a solvent (ethanol and/or dimethyl sulfoxide) at 35° C. for 5 minutes, the lipoxygenase reaction was initiated by addition of calcium chloride (3 mM) and simultaneously recorded.
# The activity of 5-lipoxygenase was determined from the difference in the pO2 -decrease before and after addition of calcium chloride. The evaluation included the initial rate of the reaction after the lag-phase as well as the duration of the lag-phase. In the concentration range of from 3 to 50 μM, the test substances induced lag-phases between 20 and 60 seconds.
# [3] = tested on: bronchoconstriction elicited by ovalbumin; test: Allergen-induced bronchoconstriction in guinea pigs (Konzett-Rossler); assay type: in vivo, guinea pig; conditions: Cavia porcellus, 1 h; oral, 60 minutes before ovalbumin (0.2 mg/kg intravenous); passively sensitized guinea pigs; read-out: ED40-Value (40% average inhibition of the bronchoconstriction elicited by ovalbumin)
# Description: The anti-asthmatic effect of compounds according to the invention was tested in anesthetized and ventilated guinea pigs. To induce an asthmatic reaction, the animals were passively sensitized by a single intraperitoneal injection of anti-ovalbumin serum. After 48 hours, the asthmatic reaction was elicited by intravenous challenge with 0.2 mg/kg of ovalbumin. The immediately resulting bronchoconstriction was measured as an increase in intratracheal pressure. Effects caused by histamine, serotonin and sympathic counterreaction were eliminated by intravenous pretreatment with 2.15 mg/kg of mepyramine, 46.4 μg/kg of propranolol, 4.64 mg/kg of atropine and 1 mg/kg of methysergide, all administered 5 minutes before challenge. Compounds according to the invention were administered orally 60 minutes before the administration of ovalbumin. The following […] for the inhibition of the bronchoconstriction elicited by ovalbumin, i.e. the effective doses causing a 40% average inhibition of the bronchoconstriction, were determined: […]
# [4] = tested on: 5-lipoxygenase; test: Inhibition of 5-lipoxygenase in Rat Blood After Oral Administration (ex vivo iLTB4-formation); conditions: 21.5 mg/kg oral, male Wistar rats, one hour after administration
# Description: The bioavailability of the compounds of formula I as 5-lipoxygenase inhibitors was characterized by means of an ex vivo biochemical assay method described by Tateson et al. in Brit. J. Pharmacol. 94, 528 (1988): A compound of formula I was orally administered to male rats (Wistar strain) at a dose of 21.5 mg/kg. After lethal CO2 -narcosis one hour after administration, the rats were bled by heart puncture with added heparin as an anticoagulant. Aliquots of the whole blood were incubated at 37° C. for 30 minutes in a water bath with calcium ionophore A 23 187 at an end concentration of 15 μg/ml. At the end of the incubation, the samples were centrifuged, and the concentration of the immunoreactive LTB4 (iLTB4) in aliquots of cell-free plasma was determined by radioimmunoassay (3H-LTB4 -RIA, Amersham). To enable calculation of the inhibition in percent of ex vivo iLTB4 -formation in whole rat blood treated with a compound according to the invention, rats orally treated with an appropriate vehicle solution were included in all experiments, and aliquots of their blood were run in parallel and were processed in the same way as described. The average iLTB4 -content of the plasma of the vehicletreated rats served as a 100% value. The activity in percent of the ex vivo iLTB4 -formation after oral administration of a compound according to the invention was calculated by dividing the average value of the iLTB4 -contents in ng iLTB4 /ml of the group treated with a compound according to the invention by the average value of the iLTB4 -contents in ng iLTB4 /ml of the vehicle treated group and subsequent multiplication by a factor of 100. The respective inhibition in percent was calculated by subtracting the activity in percent from 100.
# [5] = target: T2, 12-lipoxygenase (Homo sapiens, UniProt P18054); test: Inhibition of 12-lipoxygenase in human blood; assay type: cell-based; set-up: 3 ml aliquots of human whole blood treated with heparin; from tissue; host or cells: human whole blood (heparinized); conditions: human whole blood; calcium ionophore A 23 187 15 μg/ml; 37° C., 30 minutes; 12-HETE by HPLC
# T2 sequence (P18054 1-663): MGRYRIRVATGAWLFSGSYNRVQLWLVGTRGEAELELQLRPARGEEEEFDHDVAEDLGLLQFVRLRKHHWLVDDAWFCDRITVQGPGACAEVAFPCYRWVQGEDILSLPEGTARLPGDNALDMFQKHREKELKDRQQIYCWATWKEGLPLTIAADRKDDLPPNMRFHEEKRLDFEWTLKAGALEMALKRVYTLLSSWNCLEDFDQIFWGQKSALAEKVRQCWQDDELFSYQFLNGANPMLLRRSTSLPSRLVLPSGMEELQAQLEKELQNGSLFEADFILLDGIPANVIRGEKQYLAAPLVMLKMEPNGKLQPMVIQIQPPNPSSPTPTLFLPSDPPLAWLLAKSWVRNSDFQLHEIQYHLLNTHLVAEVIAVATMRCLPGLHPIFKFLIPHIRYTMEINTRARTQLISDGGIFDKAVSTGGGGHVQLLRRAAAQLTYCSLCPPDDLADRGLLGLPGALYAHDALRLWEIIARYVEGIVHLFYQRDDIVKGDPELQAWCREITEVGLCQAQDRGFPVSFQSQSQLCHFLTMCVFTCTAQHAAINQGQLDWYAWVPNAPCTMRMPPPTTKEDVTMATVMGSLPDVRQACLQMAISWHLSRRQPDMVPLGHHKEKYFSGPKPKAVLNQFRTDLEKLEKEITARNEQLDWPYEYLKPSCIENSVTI
# Description: 3 ml aliquots of human whole blood treated with heparin were incubated either with a compound according to the invention or with dimethyl sulfoxide at 37° C. for 5 minutes. Then 12-lipoxygenase was activated by addition of calcium ionophore A 23 187 (15 μg/ml blood). After incubation at 37° C. for 30 minutes and centrifugation, cell-free plasma was obtained. Plasma protein was precipitated by addition of 2 ml of ethanol per ml of plasma and then separated by centrifugation. After adjusting the ethanol content in the supernatant with water to 10% by volume, the 12-lipoxygenase product 12-HETE was enriched by solid phase extraction using an octadecyl silica column. The methanolic eluate was evaporated to dryness, diluted in 40% by volume of methanol, and the 12-HETE-content was determined by HPLC. The IC50 -values of the compounds of the invention prepared according to Examples 1, 8 and 16 were 2, 4 and 3 μmolar, respectively.
Compound,IC50 [1],IC50 [2],ED40 [3],Inhibition [%] of ex vivo iLTB4-formation [4],IC50 [5]
"NC(=O)N(O)Cc1ccc(C(O)C#Cc2ccc(F)cc2)cc1 (racemic) [Example 25, N-Hydroxy-N-[4-[1-hydroxy-3-(4-fluorophenyl)prop-2-yn-1-yl]benzyl]urea]",3 µM,3 µM,10 mg/kg,,
"NC(=O)N(O)Cc1ccc(C(O)C#Cc2ccccc2)cc1 (stereo not shown) [Example 8, N-Hydroxy-N-[4-[1-hydroxy-3-phenyl-prop-2-yn-1-yl]benzyl]urea]",7 µM,8 µM,,65%,4 µM
"CC(=O)N(O)Cc1ccc(C(O)C#Cc2cccs2)cc1 (stereo not shown) [Example 16, N-Hydroxy-N-[4-[1-hydroxy-3-(2-thienyl)prop-2-yn-1-yl]benzyl]acetamide]",3 µM,6 µM,,,3 µM
